From patent publication US20250032465A1, “METHODS OF TREATING CNS DISORDERS” (HANGZHOU HIGHLIGHTLL PHARMACEUTICAL CO., LTD, priority 2021, published 2025)
Like-named read-outs stand apart in the source and are kept apart here.

What was measured:
[1] = biological target: T1, JAK2 (Homo sapiens, UniProt O60674); test: JAK2 biochemical test (33P-ATP filter binding, Reaction Biology); details: read-out: Inhibition of JAK2 (IC50)
T1 construct: purchased Reaction Biology Corp, Malvern, PA (contract testing)
Description: (§1) The tests were conducted by Reaction Biology Corp, Malvern, PA (Anastassiadis et al. Nat Biotechnol. 2011; 29(11):1039-45). The step is briefly described as follows, using the basic reaction buffer: 20 mM Hepes (pH 7.5), 10 mM MgCl2, 1 mM EGTA, 0.02% Brij35, 0.02 mg/ml BSA, 0.1 mM Na3VO4, 2 mM DTT and 1% DMSO. The required cofactor was added to each kinase reaction respectively. Each reaction was performed according to the following reaction steps: 1) Preparing the designated substrate in the newly prepared basic reaction buffer; 2) Transferring the required cofactor to the above matrix solution; 3) Transferring the designated kinase to the substrate solution and mixing well slightly; 4) Transferring a compound of Formula (I) in DMSO to the kinase reaction mixture with Acoustic technique (Echo550; nanoliter range), culturing for 20 minutes at room temperature; 5) Introducing ^33P-ATP (specific activity: 10 μCi/μl) to the reaction mixture to trigger a reaction; 6) Culturing at room temperature and conducting a kinase reaction for 2 hours; 7) Plotting the reaction on P81 ion exchange paper; and 8) Testing the kinase activity with a filter binding assay. The results shown in Table 1 indicate that compounds of Formulae (I)-(III) are potent and selective TYK2/JAK1 inhibitors.

[2] = biological target: T2, TYK2 (Homo sapiens, UniProt P29597); test: TYK2 biochemical test (33P-ATP filter binding, Reaction Biology); details: read-out: Inhibition of TYK2 (IC50)
T2 construct: purchased Reaction Biology Corp, Malvern, PA (contract testing)
Description: as §1

[3] = biological target: T3, JAK1 (Homo sapiens, UniProt P23458); test: JAK1 biochemical test (33P-ATP filter binding, Reaction Biology); details: read-out: Inhibition of JAK1 (IC50)
T3 construct: purchased Reaction Biology Corp, Malvern, PA (contract testing)
Description: as §1

[4] = biological target: T3, JAK1; test: JAK1 cellular ELISA assay using PBMC cells (IL-6 stimulated STAT3 phosphorylation); assay type: cell-based; details: IL-6 100 ng/ml, 25 min
Description: This testing was performed to test cellular JAK1 activity using the IL-6 stimulated STAT3 phosphorylation assay in PBMC cells. The testing was performed according to the following procedure: 1) Plate PBMC cells to 96-well plate at density of ˜300,000 cell/well; 2) Add different concentrations of test article to wells, maintain in incubator at 37° C. and 5% CO2 for 1 hour; 3) Add IL-6 (final concentration: 100 ng/ml) to stimulate for 25 min in the above incubator; 4) After stimulation, transfer the suspension to 1.5 mL tube, centrifuge at 200 g for 5 min, collect cells, add 100 μL 1× lysate, lyse on ice for 1 hour; 5) Centrifuge at 4° C. and 12000 rpm for 10 min, take the supernatant and analyze according to instructions of the ELISA kit. In this assay, compounds of Formulae (II) and (III) had IC50<300 nM.

[5] = biological target: T4, JAK3 (Homo sapiens, UniProt P52333); test: JAK3 biochemical test (33P-ATP filter binding, Reaction Biology); details: read-out: Inhibition of JAK3 (IC50)
T4 construct: purchased Reaction Biology Corp, Malvern, PA (contract testing)
T4 sequence (P52333 1-1124): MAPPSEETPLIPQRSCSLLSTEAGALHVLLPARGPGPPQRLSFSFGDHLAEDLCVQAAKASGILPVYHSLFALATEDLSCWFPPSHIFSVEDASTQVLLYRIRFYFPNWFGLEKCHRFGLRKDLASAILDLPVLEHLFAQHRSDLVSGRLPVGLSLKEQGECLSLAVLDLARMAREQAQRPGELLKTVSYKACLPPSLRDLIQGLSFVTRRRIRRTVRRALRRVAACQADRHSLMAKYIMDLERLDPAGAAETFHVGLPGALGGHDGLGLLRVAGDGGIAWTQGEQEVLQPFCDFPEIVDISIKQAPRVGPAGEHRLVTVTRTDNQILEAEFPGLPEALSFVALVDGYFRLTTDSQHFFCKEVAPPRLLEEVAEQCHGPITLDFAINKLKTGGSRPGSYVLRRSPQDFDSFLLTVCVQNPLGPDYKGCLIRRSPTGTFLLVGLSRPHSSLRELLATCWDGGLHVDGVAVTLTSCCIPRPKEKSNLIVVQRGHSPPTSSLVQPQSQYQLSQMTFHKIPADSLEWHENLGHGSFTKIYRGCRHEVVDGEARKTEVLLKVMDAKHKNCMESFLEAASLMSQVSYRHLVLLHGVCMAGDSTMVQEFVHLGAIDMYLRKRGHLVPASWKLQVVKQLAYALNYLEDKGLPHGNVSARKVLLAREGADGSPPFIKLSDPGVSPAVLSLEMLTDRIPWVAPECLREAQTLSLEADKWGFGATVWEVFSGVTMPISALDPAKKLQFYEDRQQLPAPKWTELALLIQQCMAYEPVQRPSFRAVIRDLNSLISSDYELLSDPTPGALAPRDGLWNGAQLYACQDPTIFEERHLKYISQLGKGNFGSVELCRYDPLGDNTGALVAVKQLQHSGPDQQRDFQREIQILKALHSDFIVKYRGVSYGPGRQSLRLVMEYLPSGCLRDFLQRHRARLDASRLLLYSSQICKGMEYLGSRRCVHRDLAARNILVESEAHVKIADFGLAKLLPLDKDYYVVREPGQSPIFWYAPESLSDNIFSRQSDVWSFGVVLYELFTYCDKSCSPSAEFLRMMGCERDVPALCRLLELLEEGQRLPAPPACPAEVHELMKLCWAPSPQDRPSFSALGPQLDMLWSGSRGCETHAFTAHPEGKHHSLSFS
Description: as §1

[6] = Brain penetration in rats; assay type: in vivo; details: male, rat, 10 mg/kg oral gavage, 8 hour post-dosing
Description: This testing was performed to test the ability of compounds to penetrate the blood-brain-barrier in rats. The testing was performed according to the following procedure: 1) For each compound, take 3 male rats with body weight of 217-228 g, formulate compound using 0.5% HPMC/water suspension at concentration of 1 mg/ml; 2) After fasting overnight, administer compound at 10 mg/kg by oral gavage; 3) Take plasma samples at 1, 2, 4, 8 hours post-dosing; 4) At 8 hour post-dosing, also take brain tissues and cerebrospinal fluid (CSF); 5) Analyze compound concentration in plasma, brain tissue, and CSF using LC-MS/MS method.

[7] = biological target: T2, TYK2; test: TYK2 cellular ELISA assay using NK92 cells (IL-12 and IL-18 stimulated IFNγ excretion); assay type: cell-based; details: IL-12 2 ng/ml, IL-18 5 ng/ml, 24 hours
Description: This testing was performed to test cellular TYK2 activity using IL-12 and IL-18 stimulated IFNγ excretion assay in NK92 cells. The testing was performed according to the following procedure: 1) Replace NK92 cell media containing IL-2 with media not containing IL-2, maintain overnight; 2) Plate NK92 cells to 96-well plate at density of ˜150,000 cell/well; 3) Add different concentrations of test article to wells, maintain in incubator at 37° C. and 5% CO2 for 1 hour; 4) Add IL-12 (final concentration: 2 ng/ml) and IL-18 (final concentration: 5 ng/ml) to stimulate for 24 hours in the above incubator; 5) After 24 hours, centrifuge at 2000 rpm for 5 min, take the supernatant and analyze according to instructions of the ELISA kit. In this assay, compounds of Formulae (II) and (III) had IC50<100 nM.

[8] = Brain penetration in mice; assay type: in vivo, C57BL/6 mice; details: male, mouse, 30 mg/kg oral gavage, 4-hour post-dosing
Description: This testing was performed to test the ability of compounds to penetrate the blood-brain-barrier in mice. The testing was performed according to the following procedure: 1) for each compound, take 3 male C57BL/6 mice with body weight of 17-18 g, formulate compound using 0.5% HPMC/water suspension at concentration of 3 mg/ml; 2) After fasting overnight, administer compound at 30 mg/kg by oral gavage; 3) Take plasma samples at 1, 2, 4 hours post-dosing; 4) At 4-hour post-dosing, also take brain tissues and cerebrospinal fluid (CSF) fluid; 5) Analyze compound concentration in plasma, brain tissue, and CSF fluid using LC-MS/MS method.

T3 sequence (P23458 whole entry): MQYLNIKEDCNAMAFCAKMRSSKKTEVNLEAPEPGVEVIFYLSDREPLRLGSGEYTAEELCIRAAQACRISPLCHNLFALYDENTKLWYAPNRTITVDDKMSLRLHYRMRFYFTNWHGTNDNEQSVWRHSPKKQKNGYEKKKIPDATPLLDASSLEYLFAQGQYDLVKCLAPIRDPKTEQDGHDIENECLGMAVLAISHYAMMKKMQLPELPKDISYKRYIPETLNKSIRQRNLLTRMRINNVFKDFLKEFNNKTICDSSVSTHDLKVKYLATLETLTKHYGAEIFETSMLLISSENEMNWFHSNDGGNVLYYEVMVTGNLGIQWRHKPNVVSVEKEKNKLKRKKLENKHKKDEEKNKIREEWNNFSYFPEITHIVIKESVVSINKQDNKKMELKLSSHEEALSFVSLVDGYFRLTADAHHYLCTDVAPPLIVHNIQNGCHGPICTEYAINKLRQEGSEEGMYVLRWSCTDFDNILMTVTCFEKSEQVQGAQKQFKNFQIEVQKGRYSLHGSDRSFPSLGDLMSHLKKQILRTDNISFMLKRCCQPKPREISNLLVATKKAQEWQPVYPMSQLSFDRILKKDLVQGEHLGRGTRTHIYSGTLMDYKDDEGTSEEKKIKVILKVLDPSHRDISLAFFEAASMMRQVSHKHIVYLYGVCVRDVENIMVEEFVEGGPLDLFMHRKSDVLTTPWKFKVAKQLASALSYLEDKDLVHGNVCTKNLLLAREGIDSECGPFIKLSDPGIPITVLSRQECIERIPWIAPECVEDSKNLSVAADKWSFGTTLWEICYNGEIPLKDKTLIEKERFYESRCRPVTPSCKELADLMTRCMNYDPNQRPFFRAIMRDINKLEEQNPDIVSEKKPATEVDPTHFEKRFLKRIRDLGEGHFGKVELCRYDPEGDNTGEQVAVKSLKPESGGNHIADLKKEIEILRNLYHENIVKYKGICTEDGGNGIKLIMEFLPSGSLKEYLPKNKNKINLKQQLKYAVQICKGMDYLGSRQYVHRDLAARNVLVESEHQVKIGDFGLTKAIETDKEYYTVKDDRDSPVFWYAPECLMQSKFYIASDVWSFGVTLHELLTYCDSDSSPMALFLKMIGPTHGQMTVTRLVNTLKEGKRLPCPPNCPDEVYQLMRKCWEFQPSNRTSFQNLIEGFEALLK
T2 sequence (P29597 whole entry): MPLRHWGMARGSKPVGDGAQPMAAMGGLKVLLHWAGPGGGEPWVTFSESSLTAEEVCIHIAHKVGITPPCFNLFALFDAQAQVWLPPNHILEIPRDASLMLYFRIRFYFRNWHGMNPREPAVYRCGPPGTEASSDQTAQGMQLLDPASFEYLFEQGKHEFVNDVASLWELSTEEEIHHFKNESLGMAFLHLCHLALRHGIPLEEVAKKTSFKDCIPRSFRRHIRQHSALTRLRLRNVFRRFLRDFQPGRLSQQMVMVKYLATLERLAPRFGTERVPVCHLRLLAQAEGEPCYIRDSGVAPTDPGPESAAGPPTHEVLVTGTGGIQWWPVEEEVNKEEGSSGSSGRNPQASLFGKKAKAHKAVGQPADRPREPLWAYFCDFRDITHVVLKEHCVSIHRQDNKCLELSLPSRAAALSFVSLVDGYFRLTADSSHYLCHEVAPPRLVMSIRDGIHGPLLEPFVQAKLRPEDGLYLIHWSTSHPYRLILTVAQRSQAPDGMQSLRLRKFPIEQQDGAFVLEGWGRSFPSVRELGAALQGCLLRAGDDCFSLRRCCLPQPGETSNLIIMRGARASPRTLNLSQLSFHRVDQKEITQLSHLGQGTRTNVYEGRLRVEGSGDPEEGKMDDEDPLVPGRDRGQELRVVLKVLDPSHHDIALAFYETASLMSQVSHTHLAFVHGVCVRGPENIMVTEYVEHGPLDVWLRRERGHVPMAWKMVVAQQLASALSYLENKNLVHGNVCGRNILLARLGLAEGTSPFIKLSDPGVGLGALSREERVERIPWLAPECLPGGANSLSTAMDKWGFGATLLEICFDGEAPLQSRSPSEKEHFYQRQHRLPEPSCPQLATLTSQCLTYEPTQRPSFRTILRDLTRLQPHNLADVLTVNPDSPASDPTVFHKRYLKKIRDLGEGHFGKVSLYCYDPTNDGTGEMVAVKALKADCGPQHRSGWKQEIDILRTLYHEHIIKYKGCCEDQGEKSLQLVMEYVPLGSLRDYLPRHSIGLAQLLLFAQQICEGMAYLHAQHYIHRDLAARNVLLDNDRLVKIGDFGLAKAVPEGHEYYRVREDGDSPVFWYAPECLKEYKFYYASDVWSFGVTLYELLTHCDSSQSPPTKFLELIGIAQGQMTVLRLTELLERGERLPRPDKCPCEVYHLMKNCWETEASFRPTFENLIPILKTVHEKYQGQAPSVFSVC
T1 sequence (O60674 whole entry): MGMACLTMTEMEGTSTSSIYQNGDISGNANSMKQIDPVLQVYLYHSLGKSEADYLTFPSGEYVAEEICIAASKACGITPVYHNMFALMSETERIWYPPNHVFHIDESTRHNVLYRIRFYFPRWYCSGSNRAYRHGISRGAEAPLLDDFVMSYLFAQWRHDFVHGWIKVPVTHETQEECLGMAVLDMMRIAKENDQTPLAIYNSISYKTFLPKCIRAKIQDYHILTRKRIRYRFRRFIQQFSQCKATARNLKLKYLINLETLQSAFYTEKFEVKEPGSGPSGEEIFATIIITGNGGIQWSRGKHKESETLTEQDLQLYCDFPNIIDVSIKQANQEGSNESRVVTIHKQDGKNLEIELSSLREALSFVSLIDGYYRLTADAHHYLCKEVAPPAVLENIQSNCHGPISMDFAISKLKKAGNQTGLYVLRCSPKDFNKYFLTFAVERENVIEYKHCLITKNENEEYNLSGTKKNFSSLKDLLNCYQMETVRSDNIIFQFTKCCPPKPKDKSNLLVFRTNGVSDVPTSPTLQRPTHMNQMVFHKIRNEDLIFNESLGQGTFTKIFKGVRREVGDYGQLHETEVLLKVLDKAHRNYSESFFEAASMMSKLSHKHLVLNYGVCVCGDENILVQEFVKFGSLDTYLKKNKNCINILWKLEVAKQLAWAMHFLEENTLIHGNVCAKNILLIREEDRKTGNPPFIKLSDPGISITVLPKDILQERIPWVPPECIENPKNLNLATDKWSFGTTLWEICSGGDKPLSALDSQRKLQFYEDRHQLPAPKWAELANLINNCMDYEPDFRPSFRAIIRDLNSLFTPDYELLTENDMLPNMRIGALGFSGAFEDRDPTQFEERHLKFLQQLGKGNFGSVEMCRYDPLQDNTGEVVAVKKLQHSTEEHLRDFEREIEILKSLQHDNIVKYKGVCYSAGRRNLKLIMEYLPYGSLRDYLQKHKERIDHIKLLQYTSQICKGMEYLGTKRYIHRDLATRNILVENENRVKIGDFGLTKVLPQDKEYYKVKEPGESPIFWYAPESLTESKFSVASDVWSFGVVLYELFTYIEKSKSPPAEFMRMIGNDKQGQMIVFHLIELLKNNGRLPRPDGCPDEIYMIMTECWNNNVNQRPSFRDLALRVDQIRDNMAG

IC50 [1] [nM]	IC50 [2] [nM]	IC50 [3] [nM]	IC50 [4] [nM]	IC50 [5] [nM]	Kp at 8 h ([6]; CSF/plasma, read-out: CSF (ng/ml)/ Plasma (ng/ml))	Kp at 8 h ([6]; brain/plasma, read-out: Brain (ng/ml)/ Plasma (ng/ml))	IC50 [7] [nM]	Kp at 4 h ([8]; C57BL/6, CSF/plasma, read-out: CSF (ng/ml)/ Plasma (ng/ml))	Kp at 4 h ([8]; C57BL/6, brain/plasma, read-out: Brain (ng/ml)/ Plasma (ng/ml))	Compound
> 200	< 100	< 10								CCc1nc2cnc3ccoc3c2n1[C@H]1CC[C@H](CC#N)OC1 [Formula (I)]
> 20	< 10	< 10	< 300	> 100	> 0.15	> 0.4	< 100	> 0.15	> 0.3	Cc1nc2cnc3ccoc3c2n1[C@H]1CC[C@H](CC#N)CC1 [Formula (III)]
